Read-outs that look alike come from different tables or passages of the source.
Columns and labels:
[1] = molecular target: T1, ShHTL7 (Striga hermonthica, UniProt A0A0M3PNA2); experiment: biochemical; format: binding
Procedure: We used a sensitive, high-throughput Surface plasmon resonance (SPR) method to examine the binding affinities of the 51 candidates to the recombinant ShHTL7 protein, which was immobilized on the CM5 sensor chip. rac-GR24 was used as a positive control.
The interactions of small molecules with recombinant ShHTL7 were evaluated using the Biacore T200 system (GE Healthcare, USA) at 25 °C[47]. The purified ShHTL7 protein was immobilized on a CM5 sensor chip using the standard amine coupling procedure. […] PBS-P (10 mM phosphate buffer, 2.7 mM KCl, 137 mM NaCl, 0.05% Surfactant P20) containing 0.5% DMSO was used as the running buffer. For the screening experiments, candidates with different structures at 50 μM in the running buffer were injected individually at a flow rate of 30 μL min^−1. For binding affinity studies, compounds with different concentrations in running buffer were used. During the experiments, both the contact and dissociation times were set as 1 min. Data analysis was performed using the Biacore Evaluation Software (T200 Version 2.0). The affinity values (KD) were obtained by the kinetics analysis or the steady-state affinity method.

[2] = molecular target: T1, ShHTL7; experiment: Lineweaver-Burk plot analysis of ShHTL7 inhibition (YLG); format: biochemical; conditions: ShHTL7-mediated hydrolysis of YLG; no significant change of Vmax
Procedure: 0.1 Å width; second, the number of data points of each bin was counted; third, the density of each bin is calculated using the number of D5′C-OG-DNE2-HG data points fall in the corresponding bin being divided by the total number of the distance-distance data points; last, the Z(A,D) (shown in Equation 1) was constructed by fitting the data with the two-dimensional Gaussian function using the non-linear surface fitting methods in Origin Lab.
In this equation, Z is the conformation probability density of D5′C-OG and DNE2-HG in the calculation system. µ is the mean of the normal distribution. σ is the standard deviation.
The PPC of each system was calculated using the bivariate integration of the corresponding CPDF over the interval 1.5–3.8 Å for D5′C-OG, and 1.6–3.5 Å for DNE2-HG with Equation 2 using Matlab software (The Math Works, Natick, MA).
The final PPC value of each system was the averaged data of every 200 ns in the MD simulation.
The structure figures were analyzed by PYMOL software8.
The structures of (S)-4a were constructed and optimized by Sybyl 6.9 (Tripos Inc., St. Louis, MO).
DFT calculations of (S)-4a were performed by Gaussian 09 program package at b3lyp/6-31g(d) level9.
The results were analyzed by GaussView 5.0.
Determination of the Inhibition Model
For Lineweaver-Burk plot analysis, the competitive inhibition of ShHTL7 by compounds 1, 2g, and 2h was performed by using YLG as the substrate at 25 °C. The excitation and emission […]
Supplementary Fig. 7. Lineweaver−Burk plots for the inhibition of ShHTL7 by compounds 1 (a), 2g (b), and 2h (c). Error bar indicates SD (n = 3 biologically independent experiments).
(§1) (1 picture or pasted object on this page, not shown here)
[1] Yao, R. et al. DWARF14 is a non-canonical hormone receptor for strigolactone. Nature 536, 469– […]
[2] de Saint Germain, A. et al. An histidine covalent receptor and butenolide complex mediates strigolactone perception.
[3] […]
A: We have evaluated inhibitory kinetics of the three representative compounds 1, 2g, and 2h on ShHTL7-mediated hydrolysis of YLG. […]

[3] = molecular target: T1, ShHTL7; experiment: ShHTL7-hydrolysis reaction analysis (HPLC); format: biochemical; conditions: authors' response to reviewer
Procedure: Compounds 4a, (R)- and (S)-4a, 4g-i, and rac-GR24 were dissolved in DMSO and prepared as stock solution ([…]) just before use. A 200 μL of the reaction solution consisting of PBS buffer (pH 7.3), 10 μM samples, and 10 μg recombinant ShHTL7 or its mutants was incubated at 30 °C for 30 min; with the reaction solution (200 μL) containing PBS buffer (pH 7.3) and 10 μM samples as the blank control[40],[52]. Subsequently, the reaction was terminated by adding 200 μL of methanol, and then the reaction mixture was shaken for 10 s and centrifuged at 5310 × g for 60 s. The supernatant was filtered and the remaining amount of samples was analyzed by HPLC. The relative percentages of hydrolysis were obtained by using the amount of compounds in blank control as reference.
Supplementary Fig. 11. Hydrolysis of 4a, (R)-4a, (S)-4a, 4g-i, and rac-GR24 by ShHTL7 at 30 °C for 30 min. The remaining amounts of compounds in recombinant ShHTL7 protein and buffer solution were determined by HPLC analysis. The relative percentages of hydrolysis were calculated by using the amount of compounds in the buffer as reference. The error bar indicates SD (n = 3 biologically independent experiments).
as §1

[4] = molecular target: T1, ShHTL7; experiment: Competitive inhibition of ShHTL7 with Yoshimulactone Green (YLG) as substrate; format: biochemical; conditions: YLG used as the substrate, means ± SD, n = 3
Procedure: Based on the structural feature of the lead compound 2h, we selected three regions to perform further modification (Supplementary Fig. 6), to try to further improve bioactivity. Insertion of a carbonyl group between the bicyclo[2.2.1]hept-5-en-2-yl group and the piperazine ring was detrimental to binding affinity (Supplementary Fig. 6, region A). Removal of an oxygen atom in region B was found unfavorable to binding affinity as well. Therefore, we focused on modifying the benzene ring (region C) for 2h. A series of compounds with different groups at region C was synthesized (Supplementary Scheme 1). […] As SPR just measures the binding ability, another independent assay by using Yoshimulactone Green (YLG) as the fluorescent substrate was performed to determine the half-maximal inhibitory concentration (IC50) of these compounds against ShHTL7[22].
The excitation and emission wavelengths of YLG are 480 and 520 nm, respectively. We used a fluorescence spectrophotometer (CARY Eclipse) to detect the fluorescence intensity change of YLG during the enzymatic hydrolysis assay process. All the testing compounds and YLG were dissolved in DMSO and prepared as stock solutions just before use. […] The changes of fluorescence at 520 nm of each well were recorded every 1 min for 30 min. Using the reaction mixture without adding enzyme and tested compounds as the background control. After subtracting the background hydrolysis, a linear fluorescence increase in 8 min was used for further inspection. The IC50 values were determined via fitting relative inhibition percentages with the varying concentrations of compounds in Microsoft Excel.

[5] = tested on: P. aegyptiaca seeds; experiment: P. aegyptiaca seed germination assay; format: in vivo, Phelipanche aegyptiaca; conditions: for germination of P. aegyptiaca seeds, source data average: 10 μM, Fig. 1d source data, average of 3; for P. aegyptiaca germination(%): Supplementary Table 1, compounds tested at 10 μM, means ± SD, n = 3
Procedure: P. aegyptiaca seeds were harvested from Xinjiang province, China in 2017. The seeds were surface sterilized using 1% NaClO solution for 2 min and then washed with distilled water six times. For seed germination assay, about 20 pieces of glass fiber-filter paper discs (15 mm diameter, Whatman GF/B) were placed separately on two layers of filter papers (9 cm diameter, Whatman) in a Petri dish. Five milliliters of distilled water was added to each Petri dish to wet the papers. Approximately 40–90 sterilized seeds were spread onto each glass fiber-filter paper disc. After the seeds were conditioned in the dark at 25 °C for 4 days[48], glass fiber-filter paper discs were blotted dry on filter papers (9 cm) and transferred to the wells of 24-well cell culture plates. The testing compounds were dissolved in acetone and diluted with H2O (VH2O/Vacetone = 999/1) just before use[49]. rac-GR24 and 1‰ acetone solution were used as positive and negative controls, respectively. One hundred microliters of the test solution was added to each well of the plates, and all treatments were performed in three biological repeats. The plates were sealed and incubated in the dark at 25 °C for a week. The experiments were performed at least three times. The germinated seeds were observed by using an electronic magnifier at ×20 magnification.

T1 sequence (A0A0M3PNA2 entry or part of it): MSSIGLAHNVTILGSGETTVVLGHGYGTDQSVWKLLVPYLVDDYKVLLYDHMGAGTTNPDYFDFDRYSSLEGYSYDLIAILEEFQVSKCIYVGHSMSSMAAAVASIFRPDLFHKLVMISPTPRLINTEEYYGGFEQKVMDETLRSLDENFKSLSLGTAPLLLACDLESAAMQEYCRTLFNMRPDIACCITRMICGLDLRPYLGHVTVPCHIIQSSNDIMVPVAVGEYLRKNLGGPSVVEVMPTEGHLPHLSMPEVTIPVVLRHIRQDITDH

| SMILES | Kd [1] | inhibition manner (Lineweaver-Burk plot) [2] | hydrolysis by ShHTL7 [3] | IC50 ([4]; read-out: IC50 (Supplementary Table 1)) | germination of P. aegyptiaca seeds, source data average [5] | P. aegyptiaca germination(%) [5] | IC50 ([4]; IC50 (Supplementary Table 1)) |
| --- | --- | --- | --- | --- | --- | --- | --- |
| O=C(COc1ccc(Cl)cc1)N1CCN(CC2CC=CCC2)CC1 (stereo not shown) [2g] | 1.02 ± 0.11 µM | in a competitive manner | could not be hydrolyzed by ShHTL7 | – | – | – | – |
| O=C(c1ccc(F)cc1)N1CCN(CC2CC=CCC2)CC1 (stereo not shown) [compound 1, (4-(cyclohex-3-en-1-ylmethyl)piperazin-1-yl)(4-fluorophenyl)methanone] | 13.3 ± 1.4 µM | in a competitive manner | – | 15.9 ± 1.47 µM | 40.0744% | 39.4% | – |
| Cc1ccc(OCC(=O)N2CCN(CC3CC4C=CC3C4)CC2)cc1 (stereo not shown) [2h] | 0.96 µM | in a competitive manner | – | – | 25.888% | 27.4% | 22 ± 4.97 µM |

— PMC9271048, “Probing strigolactone perception mechanisms with rationally designed small-molecule agonists stimulating germination of root parasitic weeds” (Nature Communications, 2022)
